The text below walks through data of ChEMBL document CHEMBL3886225, “Morpholinylquinazolines” (2015).

The experiment addresses DNA-dependent protein kinase catalytic subunit (Homo sapiens, UniProt P78527). The experiment in a line: Biochemical Assay: The kinase assay was carried out in streptavidin-coated […] microtitre FlashPlates®. To this end, 1.5 μg of the DNA-PK/protein complex and 100 ng of biotinylated substrate, such as, for example, PESQEAFADLWKK biotin-NH2 (biotin-DNA-PK peptide), in a total volume of 36.5 μl (34.25 mM HEPES/KOH, 7.85 mM Tris-HCl, 68.5 mM KCl, 5 μM ATP, 6.85 mM MgCl2, 0.5 mM EDTA, 0.14 mM EGTA, 0.69 mM DTT, pH 7.4), were incubated at room temperature for 90 min with 500 ng of DNA from calf thymus, 0.1 μCi of 33P-ATP and 1.8% of DMSO per well with or without the test compound. The reaction was stopped using 50 μl/well of 200 mM EDTA. After incubation for a further 30 min at room temperature, the liquid was removed. Each well was washed three times with 100 μl of 0.9% sodium chloride solution. A non-specific reaction (blank value) was determined using 10 μM of a proprietary kinase inhibitor.

Chain of DNA-dependent protein kinase catalytic subunit (P78527 whole entry): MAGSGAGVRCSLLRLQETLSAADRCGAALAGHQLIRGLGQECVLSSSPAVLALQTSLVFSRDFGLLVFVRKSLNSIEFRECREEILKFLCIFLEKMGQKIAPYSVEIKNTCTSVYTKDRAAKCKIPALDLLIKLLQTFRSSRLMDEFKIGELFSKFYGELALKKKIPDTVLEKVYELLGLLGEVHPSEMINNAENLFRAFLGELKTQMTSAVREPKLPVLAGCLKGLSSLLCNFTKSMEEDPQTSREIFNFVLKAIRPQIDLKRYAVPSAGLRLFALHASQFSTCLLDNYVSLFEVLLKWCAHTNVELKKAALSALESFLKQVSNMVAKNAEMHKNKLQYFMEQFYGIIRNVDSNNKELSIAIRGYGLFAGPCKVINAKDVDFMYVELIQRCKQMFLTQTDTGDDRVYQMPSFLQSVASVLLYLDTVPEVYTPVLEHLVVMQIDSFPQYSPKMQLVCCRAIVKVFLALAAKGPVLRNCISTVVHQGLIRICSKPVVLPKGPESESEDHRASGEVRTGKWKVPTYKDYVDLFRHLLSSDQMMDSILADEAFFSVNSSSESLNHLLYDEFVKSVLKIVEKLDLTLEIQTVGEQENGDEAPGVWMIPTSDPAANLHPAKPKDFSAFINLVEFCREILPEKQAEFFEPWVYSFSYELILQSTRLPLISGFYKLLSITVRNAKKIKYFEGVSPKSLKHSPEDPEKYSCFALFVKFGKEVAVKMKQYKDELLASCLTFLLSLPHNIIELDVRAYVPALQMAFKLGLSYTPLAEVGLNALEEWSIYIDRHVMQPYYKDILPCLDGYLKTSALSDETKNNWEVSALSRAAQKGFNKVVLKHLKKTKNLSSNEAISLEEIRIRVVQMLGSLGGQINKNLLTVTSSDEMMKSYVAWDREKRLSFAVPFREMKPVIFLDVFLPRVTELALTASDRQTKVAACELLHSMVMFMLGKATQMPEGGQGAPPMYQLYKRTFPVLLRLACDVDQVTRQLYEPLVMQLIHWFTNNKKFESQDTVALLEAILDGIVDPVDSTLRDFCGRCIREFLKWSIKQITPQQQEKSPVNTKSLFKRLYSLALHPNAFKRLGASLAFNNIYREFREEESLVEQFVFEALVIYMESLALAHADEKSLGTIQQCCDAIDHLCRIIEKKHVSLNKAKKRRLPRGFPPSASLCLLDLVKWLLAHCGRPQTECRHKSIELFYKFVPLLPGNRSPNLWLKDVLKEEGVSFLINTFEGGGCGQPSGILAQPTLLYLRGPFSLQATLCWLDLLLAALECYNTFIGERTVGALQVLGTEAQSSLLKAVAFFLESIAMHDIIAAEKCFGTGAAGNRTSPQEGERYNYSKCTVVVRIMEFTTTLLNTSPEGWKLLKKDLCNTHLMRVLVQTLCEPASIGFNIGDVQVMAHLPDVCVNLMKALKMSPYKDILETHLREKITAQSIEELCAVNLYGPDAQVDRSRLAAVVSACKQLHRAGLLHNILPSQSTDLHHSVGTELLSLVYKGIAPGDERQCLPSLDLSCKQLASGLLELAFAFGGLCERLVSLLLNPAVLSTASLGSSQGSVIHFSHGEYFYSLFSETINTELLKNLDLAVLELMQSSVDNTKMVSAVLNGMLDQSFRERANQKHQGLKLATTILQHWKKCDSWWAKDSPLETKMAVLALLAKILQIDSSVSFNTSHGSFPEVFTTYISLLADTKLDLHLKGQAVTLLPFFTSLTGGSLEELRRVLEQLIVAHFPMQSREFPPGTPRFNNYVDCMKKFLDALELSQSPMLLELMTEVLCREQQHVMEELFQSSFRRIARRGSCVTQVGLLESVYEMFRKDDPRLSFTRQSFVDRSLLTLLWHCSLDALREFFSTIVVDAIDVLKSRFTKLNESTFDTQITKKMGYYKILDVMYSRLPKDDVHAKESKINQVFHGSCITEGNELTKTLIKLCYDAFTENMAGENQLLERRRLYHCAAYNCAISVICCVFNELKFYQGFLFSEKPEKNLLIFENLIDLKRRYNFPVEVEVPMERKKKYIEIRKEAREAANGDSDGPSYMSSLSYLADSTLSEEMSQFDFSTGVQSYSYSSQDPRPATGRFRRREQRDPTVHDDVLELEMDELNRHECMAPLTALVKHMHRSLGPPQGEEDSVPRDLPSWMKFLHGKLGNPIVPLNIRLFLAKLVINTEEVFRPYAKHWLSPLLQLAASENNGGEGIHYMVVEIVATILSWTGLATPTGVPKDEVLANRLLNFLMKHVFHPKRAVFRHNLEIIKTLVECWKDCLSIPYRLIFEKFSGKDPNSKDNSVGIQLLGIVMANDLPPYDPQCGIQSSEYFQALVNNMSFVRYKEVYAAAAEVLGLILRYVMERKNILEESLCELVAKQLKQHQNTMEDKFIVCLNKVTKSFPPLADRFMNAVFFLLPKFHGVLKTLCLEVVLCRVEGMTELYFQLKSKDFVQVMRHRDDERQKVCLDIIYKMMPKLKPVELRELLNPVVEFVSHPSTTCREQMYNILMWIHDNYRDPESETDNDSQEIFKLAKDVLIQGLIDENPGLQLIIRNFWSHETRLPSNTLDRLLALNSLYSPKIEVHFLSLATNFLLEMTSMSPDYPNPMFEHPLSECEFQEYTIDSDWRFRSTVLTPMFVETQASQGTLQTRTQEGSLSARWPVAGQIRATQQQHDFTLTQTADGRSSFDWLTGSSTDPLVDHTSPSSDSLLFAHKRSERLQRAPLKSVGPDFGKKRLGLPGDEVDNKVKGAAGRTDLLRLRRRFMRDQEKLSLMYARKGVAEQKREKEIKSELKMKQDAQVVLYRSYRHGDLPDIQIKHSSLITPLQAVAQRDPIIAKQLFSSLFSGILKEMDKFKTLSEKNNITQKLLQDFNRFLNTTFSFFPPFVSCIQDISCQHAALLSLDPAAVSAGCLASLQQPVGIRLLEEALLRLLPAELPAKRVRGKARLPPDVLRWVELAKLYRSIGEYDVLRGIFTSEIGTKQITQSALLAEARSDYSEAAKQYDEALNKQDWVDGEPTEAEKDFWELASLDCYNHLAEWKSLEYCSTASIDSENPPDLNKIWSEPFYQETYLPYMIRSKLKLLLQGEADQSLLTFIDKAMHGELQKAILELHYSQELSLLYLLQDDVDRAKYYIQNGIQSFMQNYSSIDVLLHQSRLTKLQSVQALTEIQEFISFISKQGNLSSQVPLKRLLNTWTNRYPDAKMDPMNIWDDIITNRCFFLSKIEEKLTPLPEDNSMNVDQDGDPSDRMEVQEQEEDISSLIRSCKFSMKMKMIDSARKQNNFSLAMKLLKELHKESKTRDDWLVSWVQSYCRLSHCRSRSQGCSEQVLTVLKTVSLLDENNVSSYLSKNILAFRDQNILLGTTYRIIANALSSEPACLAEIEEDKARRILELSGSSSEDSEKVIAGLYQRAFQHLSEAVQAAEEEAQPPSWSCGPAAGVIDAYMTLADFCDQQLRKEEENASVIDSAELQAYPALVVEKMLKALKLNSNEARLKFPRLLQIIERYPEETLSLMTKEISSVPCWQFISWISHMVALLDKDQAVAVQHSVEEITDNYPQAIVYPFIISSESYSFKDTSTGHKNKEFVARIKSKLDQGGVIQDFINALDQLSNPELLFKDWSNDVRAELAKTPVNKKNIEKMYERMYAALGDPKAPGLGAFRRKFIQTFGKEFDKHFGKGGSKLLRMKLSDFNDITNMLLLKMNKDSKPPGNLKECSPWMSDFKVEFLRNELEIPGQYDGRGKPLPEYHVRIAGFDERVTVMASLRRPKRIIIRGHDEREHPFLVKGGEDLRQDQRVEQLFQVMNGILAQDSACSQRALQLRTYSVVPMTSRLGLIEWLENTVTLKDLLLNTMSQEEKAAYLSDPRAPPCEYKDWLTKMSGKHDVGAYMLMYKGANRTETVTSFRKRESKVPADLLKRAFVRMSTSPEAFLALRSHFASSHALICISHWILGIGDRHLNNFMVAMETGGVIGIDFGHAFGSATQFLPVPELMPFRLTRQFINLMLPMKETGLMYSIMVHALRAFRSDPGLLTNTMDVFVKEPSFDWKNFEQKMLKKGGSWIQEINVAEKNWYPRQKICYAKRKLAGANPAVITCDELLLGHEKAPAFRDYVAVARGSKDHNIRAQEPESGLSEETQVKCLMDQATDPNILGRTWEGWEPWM

For orientation: IC50 means the concentration that inhibits the measured activity by half. Low values mean greater potency, high ones weaker potency. Molecule `O=S(=O)(NC1CCCN(c2nc(Cl)nc3cc(N4CCOCC4)ccc23)C1)c1cccs1` (stereo unspecified) gave an IC50 of less than 100 nM.
